Experimental data from US10626112B2, “Heterocyclic sulfonamide derivative and medicine comprising same” (EA PHARMA CO., LTD., priority 2014, dated 2020).

Molecular target: human TRPA1 (Homo sapiens (Human), UniProt O75762)
Assay: Measurement of TRPA1 antagonist activity (1): intracellular calcium increase
Format: cell-based
Details: 293T cells transfected with human TRPA1 expression plasmid; allylisothiocyanate 20 μM stimulation; intracellular calcium fluorescence; read-out: hTRPA1 IC50
In short: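 HEK293T cells transiently transfected with full-length human TRPA1, loaded with Calcium4 dye in HBSS/20 mM HEPES pH 7.2. Test compound preincubated 10 min, then allylisothiocyanate added at 20 μM final and fluorescence change followed for 5 min. IC50 from sigmoid fit of percent inhibition relative to agonist and buffer controls.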

Sequence of human TRPA1 (O75762 whole entry): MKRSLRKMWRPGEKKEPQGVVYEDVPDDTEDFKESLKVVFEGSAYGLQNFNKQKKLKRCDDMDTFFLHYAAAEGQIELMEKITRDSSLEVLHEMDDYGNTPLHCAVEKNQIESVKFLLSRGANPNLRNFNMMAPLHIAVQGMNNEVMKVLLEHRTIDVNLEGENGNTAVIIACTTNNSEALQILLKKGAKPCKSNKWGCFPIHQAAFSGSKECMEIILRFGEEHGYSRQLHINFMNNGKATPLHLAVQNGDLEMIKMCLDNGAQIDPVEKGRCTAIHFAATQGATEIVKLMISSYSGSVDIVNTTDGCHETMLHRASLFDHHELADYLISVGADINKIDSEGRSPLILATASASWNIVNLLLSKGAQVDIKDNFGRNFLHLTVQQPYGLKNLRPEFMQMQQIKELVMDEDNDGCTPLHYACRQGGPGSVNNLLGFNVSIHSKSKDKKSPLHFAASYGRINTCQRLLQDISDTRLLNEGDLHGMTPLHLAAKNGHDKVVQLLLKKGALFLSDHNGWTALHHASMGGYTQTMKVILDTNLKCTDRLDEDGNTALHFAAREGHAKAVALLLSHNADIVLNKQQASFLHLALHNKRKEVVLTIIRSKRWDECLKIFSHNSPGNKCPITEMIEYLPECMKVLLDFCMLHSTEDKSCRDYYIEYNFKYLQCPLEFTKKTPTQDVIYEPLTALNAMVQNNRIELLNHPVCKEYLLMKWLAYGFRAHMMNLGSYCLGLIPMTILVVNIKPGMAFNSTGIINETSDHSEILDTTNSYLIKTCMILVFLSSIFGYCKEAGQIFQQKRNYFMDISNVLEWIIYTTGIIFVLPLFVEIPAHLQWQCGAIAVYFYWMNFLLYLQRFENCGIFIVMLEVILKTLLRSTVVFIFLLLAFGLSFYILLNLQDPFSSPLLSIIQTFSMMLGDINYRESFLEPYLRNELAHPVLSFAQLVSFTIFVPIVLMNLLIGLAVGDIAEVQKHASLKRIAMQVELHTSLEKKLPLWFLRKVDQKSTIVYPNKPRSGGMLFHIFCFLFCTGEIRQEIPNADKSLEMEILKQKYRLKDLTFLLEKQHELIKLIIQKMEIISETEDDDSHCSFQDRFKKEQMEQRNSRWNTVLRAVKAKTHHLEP

O=C(NCc1ccnc(-c2ccc(OC(F)(F)F)cc2)c1)[C@@H]1CCCN1S(=O)(=O)c1cc2ccccc2o1 [Example 116, (2S)-1-(benzofuran-2-ylsulfonyl)-N-[[2-[4-(trifluoromethoxy)phenyl]-4-pyridyl]methyl]pyrrolidine-2-carboxamide]
IC50: 2.9 nM

N#Cc1ccc(-c2cc(CNC(=O)[C@@H]3CCCN3S(=O)(=O)c3cc4ccccc4o3)ccn2)cc1 [Example 117, (2S)-1-(benzofuran-2-ylsulfonyl)-N-[[2-(4-cyanophenyl)-4-pyridyl]methyl]pyrrolidine-2-carboxamide]
IC50: 14 nM

N#Cc1cccc(-c2cc(CNC(=O)[C@@H]3CCCN3S(=O)(=O)c3cc4ccccc4o3)ccn2)c1 [Example 118, (2S)-1-(benzofuran-2-ylsulfonyl)-N-[[2-(3-cyanophenyl)-4-pyridyl]methyl]pyrrolidine-2-carboxamide]
IC50: 260 nM

N#Cc1ccc(-c2cc(CNC(=O)[C@@H]3CCCN3S(=O)(=O)c3cc4ccccc4o3)ccn2)cc1F [Example 119, (2S)-1-(benzofuran-2-ylsulfonyl)-N-[[2-(4-cyano-3-fluoro-phenyl)-4-pyridyl]methyl]pyrrolidine-2-carboxamide]
IC50: 12 nM

O=C(NCc1ccnc(-c2ccccc2O)c1)[C@@H]1CCCN1S(=O)(=O)c1cc2ccccc2o1 [Example 120, (2S)-1-(benzofuran-2-ylsulfonyl)-N-[[2-(2-hydroxyphenyl)-4-pyridyl]methyl]pyrrolidine-2-carboxamide]
IC50: 180 nM

O=C(NCc1ccnc(-c2ccc(F)cc2O)c1)[C@@H]1CCCN1S(=O)(=O)c1cc2ccccc2o1 [Example 121, (2S)-1-(benzofuran-2-ylsulfonyl)-N-[[2-(4-fluoro-2-hydroxy-phenyl)-4-pyridyl]methyl]pyrrolidine-2-carboxamide]
IC50: 32 nM

O=C(NCc1ccnc(-c2cc(F)c(F)cc2O)c1)[C@@H]1CCCN1S(=O)(=O)c1cc2ccccc2o1 [Example 122, (2S)-1-(benzofuran-2-ylsulfonyl)-N-[[2-(4,5-difluoro-2-hydroxy-phenyl)-4-pyridyl]methyl]pyrrolidine-2-carboxamide]
IC50: 170 nM

O=C(NCc1ccnc(-c2ccc(C(F)(F)F)cc2O)c1)[C@@H]1CCCN1S(=O)(=O)c1cc2ccccc2o1 [Example 123, (2S)-1-(benzofuran-2-ylsulfonyl)-N-[[2-[2-hydroxy-4-(trifluoromethyl)phenyl]-4-pyridyl]methyl]pyrrolidine-2-carboxamide]
IC50: 2.6 nM

O=C(NCc1ccnc(-c2ccc(C(F)(F)F)nc2)c1)[C@@H]1CCCN1S(=O)(=O)c1cc2ccccc2o1 [Example 124, (2S)-1-(benzofuran-2-ylsulfonyl)-N-[[2-[6-(trifluoromethyl)-3-pyridyl]-4-pyridyl]methyl]pyrrolidine-2-carboxamide]
IC50: 3.4 nM

CN(C)c1ccc(-c2cc(CNC(=O)[C@@H]3CCCN3S(=O)(=O)c3cc4ccccc4o3)ccn2)cn1 [Example 125, (2S)-1-(benzofuran-2-ylsulfonyl)-N-[[2-[6-(dimethylamino)-3-pyridyl]-4-pyridyl]methyl]pyrrolidine-2-carboxamide]
IC50: 240 nM

N#Cc1ccc(-c2cc(CNC(=O)[C@@H]3CCCN3S(=O)(=O)c3cc4ccccc4o3)ccn2)c(OCc2ccccc2)c1 [Example 126, (2S)-1-(benzofuran-2-ylsulfonyl)-N-[[2-(2-benzyloxy-4-cyano-phenyl)-4-pyridyl]methyl]pyrrolidine-2-carboxamide]
IC50: 78 nM

Cn1nc(C(F)(F)F)cc1-c1cc(CNC(=O)[C@@H]2CCCN2S(=O)(=O)c2cc3ccccc3o2)ccn1 [Example 127, (2S)-1-(benzofuran-2-ylsulfonyl)-N-[[2-[2-methyl-5-(trifluoromethyl)pyrazol-3-yl]-4-pyridyl]methyl]pyrrolidine-2-carboxamide]
IC50: 25 nM

O=C(NCc1ccnc(-c2ccc(C(F)(F)F)cc2)c1)[C@@H]1CCCN1S(=O)(=O)c1cc2cc(F)ccc2o1 [Example 128, (2S)-1-(5-fluorobenzofuran-2-yl)sulfonyl-N-[[2-[4-(trifluoromethyl)phenyl]-4-pyridyl]methyl]pyrrolidine-2-carboxamide]
IC50: 0.61 nM

O=C(NCc1ccnc(-c2ccc(OC(F)(F)F)cc2)c1)[C@@H]1CCCN1S(=O)(=O)c1cc2cc(F)ccc2o1 [Example 129, (2S)-1-(5-fluorobenzofuran-2-yl)sulfonyl-N-[[2-[4-(trifluoromethoxy)phenyl]-4-pyridyl]methyl]pyrrolidine-2-carboxamide]
IC50: 0.61 nM

O=C(NCc1ccnc(-c2ccc(OC(F)F)cc2)c1)[C@@H]1CCCN1S(=O)(=O)c1cc2cc(F)ccc2o1 [Example 130, (2S)-N-[[2-[4-(difluoromethoxy)phenyl]-4-pyridyl]methyl]-1-(5-fluorobenzofuran-2-yl)sulfonyl-pyrrolidine-2-carboxamide]
IC50: 2 nM

COc1ccc(-c2cc(CNC(=O)[C@@H]3CCCN3S(=O)(=O)c3cc4cc(F)ccc4o3)ccn2)cc1 [Example 131, (2S)-1-(5-fluorobenzofuran-2-yl)sulfonyl-N-[[2-(4-methoxyphenyl)-4-pyridyl]methyl]pyrrolidine-2-carboxamide]
IC50: 32 nM

N#Cc1ccc(-c2cc(CNC(=O)[C@@H]3CCCN3S(=O)(=O)c3cc4cc(F)ccc4o3)ccn2)cc1 [Example 132, (2S)-N-[[2-(4-cyanophenyl)-4-pyridyl]methyl]-1-(5-fluorobenzofuran-2-yl)sulfonyl-pyrrolidine-2-carboxamide]
IC50: 7.6 nM

O=C(NCc1ccnc(-c2ccc(C(F)(F)F)nc2)c1)[C@@H]1CCCN1S(=O)(=O)c1cc2cc(F)ccc2o1 [Example 133, (2S)-1-(5-fluorobenzofuran-2-yl)sulfonyl-N-[[2-[6-(trifluoromethyl)-3-pyridyl]-4-pyridyl]methyl]pyrrolidine-2-carboxamide]
IC50: 0.83 nM

O=C(NCc1ccnc(-c2cnc(C3CC3)nc2)c1)[C@@H]1CCCN1S(=O)(=O)c1cc2cc(F)ccc2o1 [Example 134, (2S)-N-[[2-(2-cyclopropylpyrimidin-5-yl)-4-pyridyl]methyl]-1-(5-fluorobenzofuran-2-yl)sulfonyl-pyrrolidine-2-carboxamide]
IC50: 42 nM

O=C(NCc1ccnc(-c2ccccc2O)c1)[C@@H]1CCCN1S(=O)(=O)c1cc2cc(F)ccc2o1 [Example 135, (2S)-1-(5-fluorobenzofuran-2-yl)sulfonyl-N-[[2-(2-hydroxyphenyl)-4-pyridyl]methyl]pyrrolidine-2-carboxamide]
IC50: 30 nM

O=C(NCc1ccnc(-c2ccc(F)cc2O)c1)[C@@H]1CCCN1S(=O)(=O)c1cc2cc(F)ccc2o1 [Example 136, (2S)-1-(5-fluorobenzofuran-2-yl)sulfonyl-N-[[2-(4-fluoro-2-hydroxy-phenyl)-4-pyridyl]methyl]pyrrolidine-2-carboxamide]
IC50: 13 nM

O=C(NCc1ccnc(-c2cc(F)c(F)cc2O)c1)[C@@H]1CCCN1S(=O)(=O)c1cc2cc(F)ccc2o1 [Example 137, (2S)-N-[[2-(4,5-difluoro-2-hydroxy-phenyl)-4-pyridyl]methyl]-1-(5-fluorobenzofuran-2-yl)sulfonyl-pyrrolidine-2-carboxamide]
IC50: 29 nM

O=C(NCc1ccnc(-c2ccc(C(F)(F)F)cc2O)c1)[C@@H]1CCCN1S(=O)(=O)c1cc2cc(F)ccc2o1 [Example 138, (2S)-1-(5-fluorobenzofuran-2-yl)sulfonyl-N-[[2-[2-hydroxy-4-(trifluoromethyl)phenyl]-4-pyridyl]methyl]pyrrolidine-2-carboxamide]
IC50: 0.97 nM

O=C(NCc1cncc(-c2ccc(C(F)(F)F)cc2)c1)[C@@H]1CCCN1S(=O)(=O)c1cc2cc(F)ccc2o1 [Example 139, (2S)-1-(5-fluorobenzofuran-2-yl)sulfonyl-N-[[5-[4-(trifluoromethyl)phenyl]-3-pyridyl]methyl]pyrrolidine-2-carboxamide]
IC50: 3 nM

O=C(NCc1cncc(-c2ccc(C(F)(F)F)nc2)c1)[C@@H]1CCCN1S(=O)(=O)c1cc2cc(F)ccc2o1 [Example 140, (2S)-1-(5-fluorobenzofuran-2-yl)sulfonyl-N-[[5-[6-(trifluoromethyl)-3-pyridyl]-3-pyridyl]methyl]pyrrolidine-2-carboxamide]
IC50: 2.2 nM

O=C(NCc1cncc(-c2ccc(C(F)(F)F)cn2)c1)[C@@H]1CCCN1S(=O)(=O)c1cc2cc(F)ccc2o1 [Example 141, (2S)-1-(5-fluorobenzofuran-2-yl)sulfonyl-N-[[5-[5-(trifluoromethyl)-2-pyridyl]-3-pyridyl]methyl]pyrrolidine-2-carboxamide]
IC50: 3.3 nM

N#Cc1ccc(-c2cncc(CNC(=O)[C@@H]3CCCN3S(=O)(=O)c3cc4cc(F)ccc4o3)c2)cc1 [Example 142, (2S)-N-[[5-(4-cyanophenyl)-3-pyridyl]methyl]-1-(5-fluorobenzofuran-2-yl)sulfonyl-pyrrolidine-2-carboxamide]
IC50: 24 nM

O=C(NCc1cccc(-c2ccccc2O)n1)[C@@H]1CCCN1S(=O)(=O)c1cc2cc(F)ccc2o1 [Example 143, (2S)-1-(5-fluorobenzofuran-2-yl)sulfonyl-N-[[6-(2-hydroxyphenyl)-2-pyridyl]methyl]pyrrolidine-2-carboxamide]
IC50: 260 nM

O=C(NCc1cccc(-c2ccc(C(F)(F)F)cc2)n1)[C@@H]1CCCN1S(=O)(=O)c1cc2cc(F)ccc2o1 [Example 144, (2S)-1-(5-fluorobenzofuran-2-yl)sulfonyl-N-[[6-[4-(trifluoromethyl)phenyl]-2-pyridyl]methyl]pyrrolidine-2-carboxamide]
IC50: 47 nM

O=C(NCc1cccc(-c2ccc(C(F)(F)F)nc2)n1)[C@@H]1CCCN1S(=O)(=O)c1cc2cc(F)ccc2o1 [Example 145, (2S)-1-(5-fluorobenzofuran-2-yl)sulfonyl-N-[[6-[6-(trifluoromethyl)-3-pyridyl]-2-pyridyl]methyl]pyrrolidine-2-carboxamide]
IC50: 29 nM

N#Cc1ccc(-c2cccc(CNC(=O)[C@@H]3CCCN3S(=O)(=O)c3cc4cc(F)ccc4o3)n2)cc1 [Example 146, (2S)-N-[[6-(4-cyanophenyl)-2-pyridyl]methyl]-1-(5-fluorobenzofuran-2-yl)sulfonyl-pyrrolidine-2-carboxamide]
IC50: 310 nM
